Data taken from article PMC4229492 (International journal of toxicology, 2014).
Where “and” joins values, the source holds several entries; their conditions need not be identical. Equal values may be shown once.

Experiments:
[1] = tested on: Salmonella typhimurium TA98; assay: Ames assay, strain TA98; format: cell-based; conditions: for Mutagenic response (dose-related increase in revertant colonies): TA98, with and without metabolic activation; for Cytotoxicity to TA98: under any test condition; for Doses at which precipitate was seen on the plates: Ames plates
human whole blood = assay: In vitro methemoglobin assay; format: cell-based
[2] = tested on: human liver cancer cell lines (HepG2, Hep3B, Huh7, PLC5); assay: Cytotoxicity, panel of four human liver cancer cell lines; format: cell-based; conditions: read-out: IC50 values, range over the panel of human liver cells
T. b. rhodesiense = conditions: read-out: antitrypanosomal IC50; T. b. rhodesiense in vitro; cited from earlier work
L6 rat myoblasts = conditions: read-out: IC50 against the L6 cell line; L6 rat myoblasts in vitro; cited from earlier work
[3] = cited from earlier work
[4] = tested on: first stage trypanosome infection; conditions: i.p. 50 mg/kg/day for five days; cited from earlier work

Structure (SMILES)	Mutagenic response (dose-related increase in revertant colonies) [1]	Cytotoxicity to TA98 [1]	Methemoglobin level (human whole blood; 10 μM, 60 min, 37 °C) [%]	Methemoglobin level (human whole blood; 50 μM, 60 min, 37 °C) [%]	Doses at which precipitate was seen on the plates [1] [μg/plate]	Doses cytotoxic to the TA98 strain ([1]; in the absence of metabolic activation) [μg/plate]	Doses cytotoxic to the TA98 strain ([1]; in the presence of metabolic activation) [μg/plate]	IC50 [2] [µM]	IC50 (T. b. rhodesiense) [µM]	IC50 (L6 rat myoblasts) [µM]	OSU-36 plasma concentration ([3]; intravenous OSU-36.HCl 2 mg/kg, measured at 60 min, analyte OSU-36)	Outcome in murine first stage trypanosomiasis model [4]	Deacetylation in vivo ([3]; preliminary pharmacokinetic studies in rats)	Methemoglobin level (human whole blood; 5 mM, 10 min) [%]	Methemoglobin level (human whole blood; 5 mM, 30 min) [%]	Methemoglobin level (human whole blood; 5 mM, 60 min) [%]
CC1=CC(C)(C)N(Cc2ccccc2)c2ccc(Cl)cc21 [JR-I-78, 1-benzyl-6-chloro-2,2,4-trimethyl-1,2-dihydroquinoline]	did not elicit a mutagenic response	not cytotoxic	0.8	0.8	–	–	–	–	–	–	–	–	–	–	–	–
CC1=CC(C)(C)N(Cc2ccccc2)c2ccc(O)cc21.Cl [OSU-36.HCl, 1-benzyl-1,2-dihydro-2,2,4-trimethylquinolin-6-ol hydrochloride]	did not elicit a mutagenic response	–	2.1	9.3	≥ 500	≥ 100	≥ 500	5.2 to 20	0.013	11	approximately 150 ng/mL and ~ 0.53 μM	resulted in cures	–	–	–	–
CC(=O)Oc1ccc2c(c1)C(C)=CC(C)(C)N2Cc1ccccc1 [OSU-40, 1-benzyl-1,2-dihydro-2,2,4-trimethylquinolin-6-yl acetate]	–	–	–	–	–	–	–	8 to 36	0.012	24	–	–	rapidly deacetylated	–	–	–
COc1ccccc1CN1c2ccc(OC(C)=O)cc2C(C)=CC1(C)C [OSU-75, 1-(2-methoxybenzyl)-1,2-dihydro-2,2,4-trimethylquinolin-6-yl acetate]	did not elicit a mutagenic response	not cytotoxic	1.2	3.8	≥ 500	–	–	–	–	–	–	resulted in cures	–	–	–	–
O=N[O-].[Na+] [Sodium nitrite, reference compound]	–	–	–	–	–	–	–	–	–	–	–	–	–	37.4	41.2	50.6
